These results are taken from PMC3781056, “New Pyrazolopyrimidine Inhibitors of Protein Kinase D as Potent Anticancer Agents for Prostate Cancer Cells” (PLoS ONE, 2013).

Where a name gives a salt, the structure may show the parent alone.

T1 sequence (Q05655 whole entry): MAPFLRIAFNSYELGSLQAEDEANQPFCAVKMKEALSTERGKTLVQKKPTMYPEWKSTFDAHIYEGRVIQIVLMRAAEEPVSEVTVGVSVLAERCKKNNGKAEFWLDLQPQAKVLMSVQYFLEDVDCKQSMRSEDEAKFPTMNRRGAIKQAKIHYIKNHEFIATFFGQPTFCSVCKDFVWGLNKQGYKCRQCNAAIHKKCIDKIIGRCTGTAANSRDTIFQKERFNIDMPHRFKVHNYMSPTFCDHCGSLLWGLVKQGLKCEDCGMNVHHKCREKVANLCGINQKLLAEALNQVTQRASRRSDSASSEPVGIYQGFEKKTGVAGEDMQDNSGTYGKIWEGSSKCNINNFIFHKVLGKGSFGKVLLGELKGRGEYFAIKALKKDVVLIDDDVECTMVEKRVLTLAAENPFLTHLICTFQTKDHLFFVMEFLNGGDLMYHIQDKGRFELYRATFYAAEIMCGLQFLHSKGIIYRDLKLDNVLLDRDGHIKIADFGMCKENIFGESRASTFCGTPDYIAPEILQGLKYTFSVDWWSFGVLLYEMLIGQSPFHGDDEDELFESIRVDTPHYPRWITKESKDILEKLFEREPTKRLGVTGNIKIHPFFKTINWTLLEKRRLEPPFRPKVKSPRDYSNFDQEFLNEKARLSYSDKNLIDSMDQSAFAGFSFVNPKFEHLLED

One data set addresses T1, PKCδ (Homo sapiens, UniProt Q05655).
T1 construct: purchased SignalChem (Richmond, BC, Canada)
The data set can be described thus: In vitro radiometric PKC kinase assay. Type of data set: biochemical. The note with it: 0.1, 1 and 10 µM. The protocol: (§1) The PKC kinase assay was carried out by co-incubating 1 µCi [γ-^32P]ATP, 20 µM ATP, 50 ng of purified PKCα or PKCδ and 5 µg of myelin basic protein 4–14, 0.25 mg/mL bovine serum albumin, 0.1 mg/mL phosphatidylcholine/phosphatidylserine (80/20%) (1 µM), 1 µM phorbol dibutyrate in 50 µL of kinase buffer containing 50 mM Tris-HCl, pH 7.5, 4 mM MgCl2 and 10 mM β-mercaptoethanol. For the CAMK assay, 50 ng of CAMKIIα and 2 µg syntide-2 substrate in 50 µL kinase buffer were incubated with 0.1 mM MgCl2, 1 µCi of [γ-^32P] ATP, 70 µM ATP. 0.5 mM CaCl2 and 30 ng/µL calmodulin were preincubated for 15 min on ice and then added in the kinase reaction. The reactions were incubated at 30°C for 10 min and 25 µL of the reaction was spotted on Whatman P81 filter paper. The filter paper was washed 3 times in 0.5% phosphoric acid, air dried and counted using Beckman LS6500 multipurpose scintillation counter.
For the compound `CN(C)CCCn1cc(C2=C(c3c[nH]c4ccccc34)C(=O)NC2=O)c2ccccc21` [GF109203X, reference compound], the “inhibition of PKCδ, in words” value was “potently and concentration-dependently inhibited”.

Another data set concerns the target T2, PKCα (Homo sapiens, UniProt P17252).
T2 construct: purchased SignalChem (Richmond, BC, Canada)
The data set can be described thus: In vitro radiometric PKC kinase assay. Type of data set: biochemical. The note with it: 0.1, 1 and 10 µM. On the procedure:
as §1
Regarding `CN(C)CCCn1cc(C2=C(c3c[nH]c4ccccc34)C(=O)NC2=O)c2ccccc21` [GF109203X, reference compound], the “inhibition of PKCα, in words” value was “potently and concentration-dependently inhibited”.

For a further data set, the target named is T3, PKD1 (Homo sapiens, UniProt Q15139).
T3 construct: GST; purchased Enzo Life sciences (Farmingdale, NY)
T3 sequence (Q15139 1-912): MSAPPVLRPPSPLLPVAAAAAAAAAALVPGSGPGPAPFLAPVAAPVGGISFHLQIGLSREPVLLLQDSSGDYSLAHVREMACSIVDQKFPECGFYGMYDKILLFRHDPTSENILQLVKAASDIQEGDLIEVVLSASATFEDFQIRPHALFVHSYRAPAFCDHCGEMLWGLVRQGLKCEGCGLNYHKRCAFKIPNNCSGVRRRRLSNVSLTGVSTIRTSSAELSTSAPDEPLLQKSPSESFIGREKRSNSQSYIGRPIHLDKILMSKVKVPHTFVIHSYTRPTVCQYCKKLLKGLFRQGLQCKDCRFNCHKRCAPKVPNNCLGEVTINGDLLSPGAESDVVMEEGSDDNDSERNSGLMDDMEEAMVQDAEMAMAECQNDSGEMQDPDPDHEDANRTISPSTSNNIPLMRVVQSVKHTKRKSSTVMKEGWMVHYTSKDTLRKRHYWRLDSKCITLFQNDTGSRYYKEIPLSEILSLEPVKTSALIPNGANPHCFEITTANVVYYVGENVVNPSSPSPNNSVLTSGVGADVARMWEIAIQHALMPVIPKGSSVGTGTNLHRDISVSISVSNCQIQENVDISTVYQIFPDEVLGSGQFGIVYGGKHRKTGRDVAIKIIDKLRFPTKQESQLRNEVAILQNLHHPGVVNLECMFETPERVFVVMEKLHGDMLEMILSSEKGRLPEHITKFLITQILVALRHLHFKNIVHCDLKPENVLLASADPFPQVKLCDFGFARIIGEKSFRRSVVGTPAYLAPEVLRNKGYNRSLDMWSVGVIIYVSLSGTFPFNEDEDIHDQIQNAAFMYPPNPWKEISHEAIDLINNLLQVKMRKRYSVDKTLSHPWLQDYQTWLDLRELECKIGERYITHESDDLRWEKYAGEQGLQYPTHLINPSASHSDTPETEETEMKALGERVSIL
The data set can be described thus: In vitro radiometric PKD1 screening assay at 1 µM. Type of data set: biochemical. The note with it: 1 µM; targeted kinase inhibitor library screen; relative to DMSO. The protocol: Phosphorylation of HDAC5 was detected in a kinase reaction having 1 µCi [γ-^32P] […] The reaction was incubated at 30°C for 10 minutes and 25 µL of the reaction was spotted on Whatman P81 filter paper. The filter paper was washed 3 times in 0.5% phosphoric acid, air dried and counted using Beckman LS6500 multipurpose scintillation counter. Percent PKD1 inhibition was graphed using GraphPad Prism software 5.0.
In the case of `O=C1NC(=O)c2c1c1c3ccccc3[nH]c1c1[nH]c3ccccc3c21` [Arcyriaflavin A], the “% PKD1 Inhibition” value stood at 75%.
Same read-out and setting: then `O=C1Nc2cc(Br)ccc2/C1=C1/Nc2ccccc2/C1=N\O` [BIO], with 47%; and `NC(=O)c1ccc(-c2nc(-c3ccc4c(c3)OCCO4)c(-c3ccccn3)[nH]2)cc1` [D 4476], with 45%; and `Cc1ccccc1C(=O)c1ccc(Nc2ccc(Br)cc2N)cc1Cl` [EO 1428], with 68%.
On the same count and under the same terms, then `Cl.Cl.O=S(=O)(NCCNC/C=C/c1ccc(Br)cc1)c1cccc2cnccc12` [H 89 Dihydrochloride], with 66%; and `CS(=O)(=O)O.Cn1cc(C2=C(c3cn(CCCSC(=N)N)c4ccccc34)C(=O)NC2=O)c2ccccc21` [Ro 31-8220 Mesylate], with 72%; and `O=C1NC(=O)c2c1c1c3ccccc3n3c1c1c2c2ccccc2n1C1CCC3O1` [SB 218078], with 85%.
On to `Fc1ccc(Cl)cc1-c1nc(Nc2ccncc2)c2nccnc2n1` [SD 208], for which the “% PKD1 Inhibition” value was 74%.

The data set is the same for the next values; noted with them: 1 µM; targeted kinase inhibitor library screen; relative to DMSO; read-out: % PKD1 Inhibition.
What is called inhibition is how much of the control response was suppressed. As for `O=S(=O)(c1cccc2cnccc12)N1CCCNCC1` [Fasudil hydrochloride], the inhibition at 1 µM worked out at 41%.
The same measure, in the same setting: in the case of `Oc1c2ccccc2c2c3c(cccc13)N=N2` [SP 600125] it was 74%.

The same data set, now with this note: SAR of synthesized 1-NA-PP1 analogs.
`CNc1ncnc2c1c(-c1cccc3ccccc13)nn2C(C)(C)C` [Compound 1a, 1-(t-Butyl)-N-methyl-3-(naphthalen-1-yl)-1H-pyrazolo[3,4-d]pyrimidin-4-amine]: the “PKD1 inhibitory activity, SAR result in words” value (“PKD1 inhibitory activity” for short) is “ablated the PKD1 activity”.
For the compound `COc1ccc(-c2nn(C)c3nc(Cl)nc(N)c23)cc1` [Compound 1j, 6-Chloro-3-(4-methoxyphenyl)-1-methyl-1H-pyrazolo[3,4-d]pyrimidin-4-amine], the “PKD1 inhibitory activity” value is recorded as “did not show an increase in potency”.
For `CNc1nc(Cl)nc2c1c(-c1ccc(OC)cc1)nn2C` [Compound 1k, 6-Chloro-3-(4-methoxyphenyl)-N,1-dimethyl-1H-pyrazolo[3,4-d]pyrimidin-4-amine], the “PKD1 inhibitory activity” value was “did not show an increase in potency”.
The same measure, in the same setting: in the case of `CNc1nc(Cl)nc2c1c(-c1ccc(OC(F)(F)F)cc1)nn2C` [Compound 1m, 6-Chloro-N,1-dimethyl-3-(4-(trifluoromethoxy)phenyl)-1H-pyrazolo[3,4-d]pyrimidin-4-amine] it was “did not show an increase in potency”; in that of `CNc1ncnc2c1c(-c1ccc(-c3ccccc3)cc1)nn2C` [Compound 1p, 3-([1,1'-Biphenyl]-4-yl)-N,1-dimethyl-1H-pyrazolo[3,4-d]pyrimidin-4-amine], “did not show an increase in potency”.

The data set is the same for the next values; noted with them: read-out: inhibition of PKD1 activity.
In the case of `Cn1nc(-c2cccc3ccccc23)c2c(N)ncnc21` [Compound 1f, 1-Methyl-3-(naphthalen-1-yl)-1H-pyrazolo[3,4-d]pyrimidin-4-amine], the inhibition at 1 µM is 32%.

Tested on in the next data set: not given
Assay: not given
Settings: not given
As a reminder, the melting point is the temperature of the solid-liquid transition. `CNc1ncnc2c1c(-c1cccc3ccccc13)nn2C(C)(C)C` [Compound 1a, 1-(t-Butyl)-N-methyl-3-(naphthalen-1-yl)-1H-pyrazolo[3,4-d]pyrimidin-4-amine]: the melting point is 152.4 to 156.3 °C.
Same read-out and setting: in the case of `CNc1ncnc2c1c(-c1ccc(OC)cc1)nn2C(C)(C)C` [Compound 1c, 1-(t-Butyl)-3-(4-methoxyphenyl)-N-methyl-1H-pyrazolo[3,4-d]pyrimidin-4-amine] it was 89.3 to 91.2 °C.
As for `COc1ccc(-c2nn(C)c3ncnc(N)c23)cc1` [Compound 1h, 3-(4-Methoxyphenyl)-1-methyl-1H-pyrazolo[3,4-d]pyrimidin-4-amine], the melting point was in the range of 185 to 188 °C.
On the same count and under the same terms, in the case of `COc1ccc(-c2nn(C)c3nc(Cl)nc(N)c23)cc1` [Compound 1j, 6-Chloro-3-(4-methoxyphenyl)-1-methyl-1H-pyrazolo[3,4-d]pyrimidin-4-amine] it was greater than 250 °C; in that of `CNc1nc(Cl)nc2c1c(-c1ccc(OC)cc1)nn2C` [Compound 1k, 6-Chloro-3-(4-methoxyphenyl)-N,1-dimethyl-1H-pyrazolo[3,4-d]pyrimidin-4-amine], 159.3 to 160.9 °C.
Still for that read-out and setting: in the case of `CNc1nc(Cl)nc2c1c(-c1ccc(F)cc1)nn2C` [Compound 1o, 6-Chloro-3-(4-fluorophenyl)-N,1-dimethyl-1H-pyrazolo[3,4-d]pyrimidin-4-amine] it was 189.9 to 192.3 °C.
